Earlier results as cited in patent US11642371B2, “Encapsulated antimicrobials and related methods of treatment” (ADVANTAGE SILVER DENTAL ARREST, LLC, priority 2018, dated 2023).

System: dentinal caries lesions
Conditions: lesions that had progressed into the dentin

Silver diamine fluoride [SDF]
dentinal caries lesions found to be arrested after treatment: two-thirds
